Among the data in a melting point compilation (Tetko et al.; mined from patent text by program, amines drawn as free bases though some values may be those of a salt) are melting point values, retold here.

SMILES strings stand for the structures. Non-standard residues stand in square brackets, D forms with d. Residues, ends and D or L forms follow the SMILES beside them. ξ: configuration not given here. *: point of attachment. Boc = CC(C)(C)OC(=O)*; ξA = CC(N)C(=O)O

In general, melting point refers to the temperature of the solid-liquid transition.

Turning to `CCC(CC)c1ccc(-c2ccco2)c2nc(Oc3ccc(Cl)cc3Br)n(C)c12`, the melting point fell in the range of 159 to 162 °C.

For `CCN1C(=O)C(C)(C)C(=O)N(C)c2cc(CN(CCn3ccc4oc(C)cc4c3=O)Cc3cccnc3C=O)ccc21`, the melting point fell in the range of 147 to 149 °C. `CCOP(=O)(CCc1cn(-c2ccccc2)nc1O)OCC` yielded a melting point of 121 to 122 °C. With `CC#CC(C)(C)NC(=O)C(CC)Oc1cncc(Br)c1` (single isomer, unassigned; (-)) the figure was 95 to 97 °C; with `CC(C)(C)OC(=O)NC(Cc1ccc(OCc2ccccc2)cc1)CN1CCOCC1` (stereo not drawn), 98 to 99 °C. For `CC(C#Cc1ccc(C(=O)Cc2ccc(F)cc2)o1)N(O)C(N)=O` (stereo not drawn) the value was 154 to 156 °C. For `CCCCCC(O)C=CC1C(O)CC(=O)C1CCCCCCC(=O)OCCSS(C)(=O)=O` (stereo not drawn) the value was 56 to 58 °C; for `Cc1cnc2[nH]cc(/C=C3\N=C(N4CCN(c5ccccc5)CC4)NC3=O)c2c1`, 331 to 332 °C; for `Nc1cc(Cl)c(N2CCC(N3CCOCC3)CC2)c(Cl)c1`, 144 to 146 °C. The molecule `CCC(CC)n1nnc2cc(C)c(C)c(N)c21` had a melting point of 114 to 117 °C. As for `COC(=O)C=Cc1ccc(C=O)cc1`, the melting point was 82 to 84 °C. `O=C(O)C1Cc2c(ccc3c(=O)c4c(Cl)cccc4oc23)O1` (stereo not drawn) registered a melting point of 283 to 286 °C. `NC(=O)C1=NN(c2cccc(COCC(F)(F)C(F)(F)F)c2)C(c2ccccc2)N1` (stereo not drawn): the melting point fell in the range of 146 to 148 °C. In turn, `NC(=O)Cc1ccc([N+](=O)[O-])c(C(=O)c2ccc(Cl)cc2)c1` had a melting point of 212 °C. Turning to `Cc1[nH]c(C(=O)N2CCC(C(=O)NCC3CCCCC3)CC2)c(C)c1-c1nc2ccc(C(=O)c3ccccc3)cc2[nH]1`, the melting point lay within 274 to 276 °C.

In turn, `CCOC(=O)C(C#N)(CCCN(C)CCc1cccc(C(=O)OC)c1)c1ccc(OC)c(OC)c1` (stereo not drawn) yielded a melting point of 89 to 91 °C. For `CCOC(=O)c1c(C)n(C)cc(-c2ccc(Cl)cc2)c1=O` the value was 200 to 201 °C; for `OCCCCN1CCC(C(O)(c2ccc(F)cc2)c2ccc(F)cc2)CC1`, 130 to 131 °C; for `COc1ccc(N2CCN(c3c(C)c(C=O)c4c(c3C)C(c3ccc(C)cc3)C(C)(C)O4)CC2)cc1` (stereo not drawn), 175 to 177 °C.

`CC=C1CC2C3CCc4cc(OC)ccc4C3CCC2(CC)C1=O` (stereo not drawn) displayed a melting point of 155 to 157 °C. As to `COc1cc([N+](=O)[O-])c2nccc(C)c2c1OCCCCCc1ccccc1`, the melting point lay within 47 to 50 °C. `CCCCCc1c(C(C)C)nc(C(C)C)c(CO)c1-c1cccc(F)c1` registered a melting point of 117 to 118 °C. In turn, `Cc1nn(C2=NNN(S)C2N)c2c1CCCC2` (stereo not drawn) yielded a melting point of 201 to 202 °C. `O=S(=O)(c1ccc(F)cc1)C(c1cc(F)ccc1F)c1cc(NCCO)ncc1Cl` (stereo not drawn): the melting point lay in the range of 157 to 158 °C. `CC(C)(C)OC(=O)CC(=O)c1cc2ccccc2cc1O` returned a melting point of 80 to 84 °C. With `Cn1ncnc1COc1nn2c(-c3c(F)cccc3F)nncc2c1-c1ccccc1F` the figure was 163 °C; with `COC(=O)CNC(=O)C(C)NC(=O)CNC(=O)OC(C)(C)C` (stereo not drawn) (Boc-Gly-[ξA]-Gly-OMe), 98 to 100 °C.

For the molecule `CCc1nc(N)sc1-c1ccncc1`, the melting point is 209 to 211 °C. With `CCOC(=O)c1ccc(OCCCCC2CC3=C(C2)C(=O)C(OC)=C(OC)C3=O)cc1` the figure was 97 to 99 °C.

As for `C=Cc1ccc(NC(C)=O)nc1`, the melting point lay in the range of 120 to 121 °C. For `CC(C)(C(=O)O)c1ccc(CCNS(=O)(=O)c2ccccc2)cc1` the value was 86 to 88 °C. With `Cc1c(NC(=O)c2ccc(CC(=O)C3CCOC3)cc2)ccc2cc(CN3CCCC3)cnc12` (stereo not drawn) the figure was 142 to 143 °C; with `COCCN(C)S(=O)(=O)c1cc(-n2c(=O)cc(C(F)(F)F)n(C)c2=O)ccc1Cl`, 108 to 110 °C. Molecule `CN1C(C)(C)CC(NC(=O)c2ccc(-c3nc4cc(Cl)c(Cl)cc4[nH]3)cc2)CC1(C)C` registered a melting point of more than 280 °C. `CC(=O)O[C@H]1CC[C@H]2[C@@H]3CCc4cc(O)ccc4[C@H]3[C@@H](CCCCCCCCCS(=O)(=O)CCCC(F)(F)C(F)(F)F)C[C@]12C`: the melting point came out at 130 °C. Regarding `CC(C)C(=O)[C@H]1CCn2c(cc3ccccc32)C1`, the melting point is 78 to 79 °C. For `CCC(=O)c1cc(F)c(OCC2CC2(Cl)Cl)cc1F` (stereo not drawn) the value was 89 to 91 °C; for `CC(C)(N)[C@@H]1CCN(c2cc3c(c(N)c2F)c(=O)c(C(=O)O)cn3C2CC2)C1`, more than 300 °C; for `CN1C(=O)CC(c2ccccc2)C1C(O)c1ccc(-c2ccc(F)c(Cl)c2)s1` (stereo not drawn), 194 °C. With `O=C(O)C(=NOc1ccccc1)c1cccs1` the figure was 86 °C; with `N#Cc1ccccc1N1CCN(C[C@@H](O)COc2cccc(-c3noc4ccsc34)c2)CC1`, 87 to 89 °C; with `CC1Sc2nc(SCc3ccccc3)nn2C1=O` (stereo not drawn), 85 to 87 °C. For `COC(=O)Cc1ccc(C(C)=O)s1` the value was 43 to 44 °C; for `O=C(O)c1cc(O)c(Cl)c(Cl)c1`, 211 °C. In turn, `O=CN(O)C(CCO)CS(=O)(=O)c1ccc(-c2ccc(Cl)cc2)cc1` (stereo not drawn) came in with a melting point of 158 to 159 °C. As for `c1cc(-c2cnc(-c3ccc(-c4cnco4)o3)o2)nc(-c2cnc(-c3ccc(-c4cnco4)o3)o2)c1`, the melting point is more than 250 °C. `c1ccc(OCCSCc2nnc(-c3ccc(OCCN4CCCCCC4)cc3)o2)cc1` displayed a melting point of 40 °C.

With `COc1ccc(N2CCN(Cc3ccc(NC(=O)/C=C/c4cccc(-c5ccc(C)cc5)c4)cc3)CC2)cc1`, the melting point fell in the range of 207 to 208 °C. For `O=C(Cn1cnc2ccccc21)c1ccc(Cl)cc1Cl` the value was 130 to 132 °C.

`FC(F)(F)c1nc2cnc3ccccc3c2s1` returned a melting point of 113 to 114 °C. As for `CC(C)(C)OC(=O)N1CCN(C(=O)OC[C@@]2(C)Cn3cc([N+](=O)[O-])nc3O2)CC1`, the melting point was in the range of 211 to 212 °C. On to `CON=C(c1ccccc1OCc1ccc(C)cc1)n1ccnc1`, for which the melting point lay in the range of 70.5 to 72 °C. With `CCCCCCCCN1C(=O)C2C3CCC(O3)C2C1=O` (stereo not drawn) the figure was 36 to 37 °C; with `Cc1ccc(S(=O)(=O)OC[C@H](O)CO)cc1`, 54 to 59 °C. With `CCOc1nn2c(-c3ccccc3Br)nnc2c2ccccc12` the figure was 157 to 158 °C; with `COc1ccc(CNc2nc(SC)ncc2CO)cc1Cl`, 159 to 160 °C; with `COC(=O)Nc1nc2cc(F)c(OC(C)c3c(Cl)cccc3Cl)cc2[nH]1` (stereo not drawn), 240 to 245 °C. `CC(C)(C)C(O)c1ccc(C2(c3ccccc3)OCCO2)cc1` (stereo not drawn) gave a melting point of 90 to 93 °C.

`O=S(=O)(ON=C1CCCc2ccccc21)c1ccc(O)cc1` displayed a melting point of 141 to 142 °C. `O=C(O)c1cccc(-c2ccc(CNC(=O)c3cccnc3Oc3ccc(F)cc3)cc2)c1` showed a melting point of 184 to 186 °C. With `CCOC(=O)c1nsc(-c2ccccc2)n1` the figure was 32 to 35 °C.

As to `CC(C)(C)OC(=O)N1CCC[C@@H](O)[C@H](C(=O)O)C1`, the melting point lay within 98.5 to 102 °C.

Turning to `Oc1nc(S)n(-c2ccccc2)n1`, the melting point lay in the range of 223 to 226 °C.
